Results taken from ChEMBL document CHEMBL4507268 (2021).

How the values were obtained:
[1] = target: Mitogen-activated protein kinase 6 (Homo sapiens) (UniProt Q16659); details: Compound concentration 1000.0 nM
[2] = target: T1, Tyrosine-protein kinase receptor TYRO3 (Homo sapiens) (UniProt Q06418); details: Compound concentration 1000.0 nM
T1 sequence (whole entry): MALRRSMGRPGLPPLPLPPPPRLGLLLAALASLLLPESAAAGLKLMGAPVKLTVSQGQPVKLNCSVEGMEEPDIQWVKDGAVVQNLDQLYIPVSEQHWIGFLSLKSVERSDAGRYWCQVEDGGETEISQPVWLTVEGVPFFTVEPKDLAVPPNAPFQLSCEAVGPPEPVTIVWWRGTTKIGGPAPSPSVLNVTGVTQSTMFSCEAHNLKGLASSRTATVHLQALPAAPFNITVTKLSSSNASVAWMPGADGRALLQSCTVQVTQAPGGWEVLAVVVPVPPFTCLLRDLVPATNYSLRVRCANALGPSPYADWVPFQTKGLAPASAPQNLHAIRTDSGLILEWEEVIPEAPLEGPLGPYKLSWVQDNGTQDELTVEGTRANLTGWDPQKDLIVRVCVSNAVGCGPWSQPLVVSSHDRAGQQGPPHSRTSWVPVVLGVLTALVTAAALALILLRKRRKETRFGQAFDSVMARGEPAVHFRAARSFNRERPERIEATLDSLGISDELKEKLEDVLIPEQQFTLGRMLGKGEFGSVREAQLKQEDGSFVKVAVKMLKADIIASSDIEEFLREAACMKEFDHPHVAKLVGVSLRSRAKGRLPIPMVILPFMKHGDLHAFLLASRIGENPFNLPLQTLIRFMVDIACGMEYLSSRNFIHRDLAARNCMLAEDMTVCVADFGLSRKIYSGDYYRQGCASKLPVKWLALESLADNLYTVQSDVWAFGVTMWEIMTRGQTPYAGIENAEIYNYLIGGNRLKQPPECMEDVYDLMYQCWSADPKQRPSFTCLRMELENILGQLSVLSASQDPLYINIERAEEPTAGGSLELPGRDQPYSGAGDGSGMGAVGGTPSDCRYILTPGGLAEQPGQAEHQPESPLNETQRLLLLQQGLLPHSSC

[3] = target: Ephrin type-A receptor 5 (Homo sapiens) (UniProt P54756); details: Compound concentration 1000.0 nM
Ephrin type-A receptor 5 (Homo sapiens), sequence (P54756 whole entry): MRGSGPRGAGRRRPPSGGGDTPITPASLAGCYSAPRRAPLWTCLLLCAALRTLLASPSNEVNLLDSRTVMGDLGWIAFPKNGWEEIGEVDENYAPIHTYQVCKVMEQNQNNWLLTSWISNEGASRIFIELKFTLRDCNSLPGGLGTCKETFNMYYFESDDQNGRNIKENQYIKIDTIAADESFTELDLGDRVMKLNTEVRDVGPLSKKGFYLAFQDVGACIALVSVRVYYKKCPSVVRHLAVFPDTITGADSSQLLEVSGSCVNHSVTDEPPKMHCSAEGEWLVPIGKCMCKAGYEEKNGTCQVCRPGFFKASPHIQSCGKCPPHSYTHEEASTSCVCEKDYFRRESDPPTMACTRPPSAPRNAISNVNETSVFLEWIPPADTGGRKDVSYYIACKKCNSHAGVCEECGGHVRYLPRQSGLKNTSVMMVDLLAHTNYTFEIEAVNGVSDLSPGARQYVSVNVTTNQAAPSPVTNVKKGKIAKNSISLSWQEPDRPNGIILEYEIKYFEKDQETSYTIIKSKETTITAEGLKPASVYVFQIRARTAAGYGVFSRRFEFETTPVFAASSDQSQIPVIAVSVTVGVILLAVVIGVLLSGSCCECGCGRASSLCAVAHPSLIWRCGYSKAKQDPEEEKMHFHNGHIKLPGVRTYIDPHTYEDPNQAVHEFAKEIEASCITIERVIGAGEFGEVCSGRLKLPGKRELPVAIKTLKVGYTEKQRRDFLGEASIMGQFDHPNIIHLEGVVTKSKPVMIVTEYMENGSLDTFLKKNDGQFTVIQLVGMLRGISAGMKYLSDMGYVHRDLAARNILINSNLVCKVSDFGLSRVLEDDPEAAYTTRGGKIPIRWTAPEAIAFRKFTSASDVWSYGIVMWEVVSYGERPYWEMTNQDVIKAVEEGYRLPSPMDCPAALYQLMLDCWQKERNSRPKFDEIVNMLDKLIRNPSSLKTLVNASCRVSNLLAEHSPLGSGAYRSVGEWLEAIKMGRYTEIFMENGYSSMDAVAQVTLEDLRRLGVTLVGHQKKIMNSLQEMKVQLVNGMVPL

[4] = target: Cyclin-dependent kinase 11B (Homo sapiens) (UniProt P21127); details: Compound concentration 1000.0 nM
[5] = target: Serine/threonine-protein kinase pim-3 (Homo sapiens) (UniProt Q86V86); details: Compound concentration 1000.0 nM
[6] = target: Serine/threonine-protein kinase/endoribonuclease IRE1 (Homo sapiens) (UniProt O75460); details: Compound concentration 1000.0 nM
[7] = target: Mitotic checkpoint serine/threonine-protein kinase BUB1 (Homo sapiens) (UniProt O43683); details: Compound concentration 1000.0 nM
Mitotic checkpoint serine/threonine-protein kinase BUB1 (Homo sapiens), sequence (O43683 whole entry, looked up): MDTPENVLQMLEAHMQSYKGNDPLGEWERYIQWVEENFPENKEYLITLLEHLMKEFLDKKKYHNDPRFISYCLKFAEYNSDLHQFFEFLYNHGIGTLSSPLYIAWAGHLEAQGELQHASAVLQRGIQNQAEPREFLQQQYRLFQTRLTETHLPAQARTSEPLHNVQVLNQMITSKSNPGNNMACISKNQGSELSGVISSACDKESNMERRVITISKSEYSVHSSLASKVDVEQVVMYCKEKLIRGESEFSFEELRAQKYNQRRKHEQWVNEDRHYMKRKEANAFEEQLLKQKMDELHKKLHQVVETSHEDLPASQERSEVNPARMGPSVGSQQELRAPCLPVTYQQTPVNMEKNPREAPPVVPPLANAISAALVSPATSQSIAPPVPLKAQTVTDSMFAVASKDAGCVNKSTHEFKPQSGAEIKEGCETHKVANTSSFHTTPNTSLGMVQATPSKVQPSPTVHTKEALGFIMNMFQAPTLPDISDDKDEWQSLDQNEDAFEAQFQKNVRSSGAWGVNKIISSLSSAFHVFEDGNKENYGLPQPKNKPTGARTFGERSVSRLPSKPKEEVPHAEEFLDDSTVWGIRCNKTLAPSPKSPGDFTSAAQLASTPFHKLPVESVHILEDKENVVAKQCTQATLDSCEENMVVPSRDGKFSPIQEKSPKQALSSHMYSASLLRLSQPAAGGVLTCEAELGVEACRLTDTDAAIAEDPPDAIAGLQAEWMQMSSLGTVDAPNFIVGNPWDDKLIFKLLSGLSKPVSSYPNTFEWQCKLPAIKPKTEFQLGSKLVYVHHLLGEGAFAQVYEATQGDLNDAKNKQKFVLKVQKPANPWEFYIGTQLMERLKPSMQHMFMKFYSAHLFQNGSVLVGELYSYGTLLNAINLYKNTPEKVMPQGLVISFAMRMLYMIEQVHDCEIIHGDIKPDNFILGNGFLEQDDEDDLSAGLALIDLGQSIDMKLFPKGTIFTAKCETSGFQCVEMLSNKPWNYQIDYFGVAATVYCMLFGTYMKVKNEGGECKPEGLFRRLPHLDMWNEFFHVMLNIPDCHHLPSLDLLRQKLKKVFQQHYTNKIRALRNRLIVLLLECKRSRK

[8] = target: Receptor tyrosine-protein kinase erbB-4 (Homo sapiens) (UniProt Q15303); details: Compound concentration 1000.0 nM
Receptor tyrosine-protein kinase erbB-4 (Homo sapiens), sequence (Q15303 whole entry): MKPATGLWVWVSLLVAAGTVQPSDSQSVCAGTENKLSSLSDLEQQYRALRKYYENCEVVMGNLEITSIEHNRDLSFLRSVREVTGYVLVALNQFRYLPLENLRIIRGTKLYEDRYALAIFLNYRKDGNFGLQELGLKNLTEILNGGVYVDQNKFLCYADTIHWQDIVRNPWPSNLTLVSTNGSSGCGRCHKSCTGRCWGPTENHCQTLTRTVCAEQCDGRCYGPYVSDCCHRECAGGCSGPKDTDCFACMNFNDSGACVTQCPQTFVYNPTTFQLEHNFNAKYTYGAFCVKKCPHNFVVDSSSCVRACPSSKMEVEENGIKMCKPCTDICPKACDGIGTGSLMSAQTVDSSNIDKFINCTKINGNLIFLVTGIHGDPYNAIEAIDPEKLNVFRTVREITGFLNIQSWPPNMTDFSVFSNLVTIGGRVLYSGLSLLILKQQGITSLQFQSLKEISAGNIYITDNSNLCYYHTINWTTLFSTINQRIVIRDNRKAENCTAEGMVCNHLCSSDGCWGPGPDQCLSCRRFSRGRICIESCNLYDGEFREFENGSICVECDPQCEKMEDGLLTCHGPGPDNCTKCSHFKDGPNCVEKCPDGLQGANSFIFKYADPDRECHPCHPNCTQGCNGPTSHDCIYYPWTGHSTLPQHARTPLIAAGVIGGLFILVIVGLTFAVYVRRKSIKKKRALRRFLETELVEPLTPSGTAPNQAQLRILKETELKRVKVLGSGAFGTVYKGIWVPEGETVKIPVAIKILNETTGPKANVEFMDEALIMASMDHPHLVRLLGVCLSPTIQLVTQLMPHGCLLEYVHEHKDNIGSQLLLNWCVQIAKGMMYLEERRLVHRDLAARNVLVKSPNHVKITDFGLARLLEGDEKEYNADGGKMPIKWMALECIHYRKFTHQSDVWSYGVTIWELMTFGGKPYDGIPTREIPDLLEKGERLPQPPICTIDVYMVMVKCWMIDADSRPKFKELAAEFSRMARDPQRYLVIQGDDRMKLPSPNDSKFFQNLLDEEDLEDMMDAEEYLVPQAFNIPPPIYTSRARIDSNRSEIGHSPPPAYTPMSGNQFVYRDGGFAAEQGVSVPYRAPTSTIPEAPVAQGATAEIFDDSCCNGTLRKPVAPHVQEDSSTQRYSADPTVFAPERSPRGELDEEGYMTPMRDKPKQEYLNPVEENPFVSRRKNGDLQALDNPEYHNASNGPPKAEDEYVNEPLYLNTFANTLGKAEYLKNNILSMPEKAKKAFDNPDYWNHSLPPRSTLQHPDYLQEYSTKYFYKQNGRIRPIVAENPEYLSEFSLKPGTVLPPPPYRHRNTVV

[9] = target: Histamine H3 receptor (Homo sapiens) (UniProt Q9Y5N1); details: Compound concentration 10.0 uM
Histamine H3 receptor (Homo sapiens), sequence (Q9Y5N1 whole entry): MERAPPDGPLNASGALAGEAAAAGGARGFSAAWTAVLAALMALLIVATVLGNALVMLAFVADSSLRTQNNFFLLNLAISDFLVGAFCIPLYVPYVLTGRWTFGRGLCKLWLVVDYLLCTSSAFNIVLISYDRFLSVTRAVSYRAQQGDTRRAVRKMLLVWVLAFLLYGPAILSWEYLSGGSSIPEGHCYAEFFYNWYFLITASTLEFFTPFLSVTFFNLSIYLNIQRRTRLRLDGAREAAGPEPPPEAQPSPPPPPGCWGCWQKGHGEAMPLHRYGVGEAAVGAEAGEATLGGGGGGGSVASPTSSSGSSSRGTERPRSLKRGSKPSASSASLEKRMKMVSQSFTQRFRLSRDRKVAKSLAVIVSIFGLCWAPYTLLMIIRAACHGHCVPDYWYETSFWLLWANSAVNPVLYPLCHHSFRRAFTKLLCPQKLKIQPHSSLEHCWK

[10] = target: T2, Mitogen-activated protein kinase kinase kinase kinase 3 (Homo sapiens) (UniProt Q8IVH8); details: Compound concentration 1000.0 nM
T2 sequence (whole entry): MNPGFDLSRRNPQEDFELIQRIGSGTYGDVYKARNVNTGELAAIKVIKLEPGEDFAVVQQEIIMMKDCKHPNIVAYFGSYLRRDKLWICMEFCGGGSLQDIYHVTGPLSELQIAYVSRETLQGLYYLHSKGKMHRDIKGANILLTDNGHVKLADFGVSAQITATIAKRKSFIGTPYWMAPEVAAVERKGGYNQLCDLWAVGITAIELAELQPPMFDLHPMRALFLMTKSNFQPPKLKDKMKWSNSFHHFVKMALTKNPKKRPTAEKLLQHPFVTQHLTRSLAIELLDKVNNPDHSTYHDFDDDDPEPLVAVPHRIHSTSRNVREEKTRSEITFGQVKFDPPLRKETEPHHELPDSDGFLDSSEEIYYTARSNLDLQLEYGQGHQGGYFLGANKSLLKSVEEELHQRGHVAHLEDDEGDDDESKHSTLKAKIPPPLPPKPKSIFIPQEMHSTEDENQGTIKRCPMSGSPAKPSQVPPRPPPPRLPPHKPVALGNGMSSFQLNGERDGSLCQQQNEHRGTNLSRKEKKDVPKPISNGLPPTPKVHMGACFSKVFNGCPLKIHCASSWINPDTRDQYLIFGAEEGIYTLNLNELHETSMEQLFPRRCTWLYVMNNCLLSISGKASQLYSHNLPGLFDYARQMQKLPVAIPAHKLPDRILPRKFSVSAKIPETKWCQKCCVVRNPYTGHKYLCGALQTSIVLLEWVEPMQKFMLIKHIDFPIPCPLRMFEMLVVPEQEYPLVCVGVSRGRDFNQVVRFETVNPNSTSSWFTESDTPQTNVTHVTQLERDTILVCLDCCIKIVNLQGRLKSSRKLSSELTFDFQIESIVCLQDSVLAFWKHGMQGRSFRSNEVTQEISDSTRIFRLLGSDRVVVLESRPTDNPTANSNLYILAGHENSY

[11] = target: Receptor-interacting serine/threonine-protein kinase 2 (Homo sapiens) (UniProt O43353); details: Compound concentration 1000.0 nM
Receptor-interacting serine/threonine-protein kinase 2 (Homo sapiens), sequence (O43353 whole entry): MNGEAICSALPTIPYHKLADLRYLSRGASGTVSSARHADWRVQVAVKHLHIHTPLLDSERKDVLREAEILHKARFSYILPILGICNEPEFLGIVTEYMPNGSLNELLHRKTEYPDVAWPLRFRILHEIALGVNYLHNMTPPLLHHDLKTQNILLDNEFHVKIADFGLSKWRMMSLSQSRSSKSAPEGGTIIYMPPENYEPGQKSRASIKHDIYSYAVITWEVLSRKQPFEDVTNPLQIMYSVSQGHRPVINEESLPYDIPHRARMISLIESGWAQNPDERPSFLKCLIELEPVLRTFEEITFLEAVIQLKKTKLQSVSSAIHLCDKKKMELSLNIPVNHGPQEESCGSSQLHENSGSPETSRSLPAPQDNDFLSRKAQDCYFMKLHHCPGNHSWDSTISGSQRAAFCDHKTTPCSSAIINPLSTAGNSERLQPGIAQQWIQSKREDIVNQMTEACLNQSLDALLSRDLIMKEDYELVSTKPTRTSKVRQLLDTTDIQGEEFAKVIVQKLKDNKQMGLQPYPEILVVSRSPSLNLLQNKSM

CN1CCN(c2cnc3c(C4CCN(C(=O)c5ccc(OC(F)(F)F)cc5N)CC4)ncnc3c2)CC1 [BAY-885]
inactive: residual activity [1] 100% | residual activity [2] 100% | residual activity [3] 91% | residual activity [4] 82% | residual activity [5] 100% | residual activity [6] 99% | residual activity [7] 93% | residual activity [8] 79% | inhibition [9] 36.9% | residual activity [10] 100% | residual activity [11] 100%

Cc1nc(C2CCN(C(=O)c3ccc(OC(F)(F)F)cc3N)CC2)c2ncc(N3CCN(C)CC3)cc2n1 [BAY-693]
inactive: residual activity [1] 100% | residual activity [2] 100% | residual activity [3] 99% | residual activity [4] 87% | residual activity [5] 100% | residual activity [6] 100% | residual activity [7] 96% | residual activity [8] 100% | inhibition [9] 38.4% | residual activity [10] 100% | residual activity [11] 94%
